Structures are written as SMILES. ≈ marks a conversion by molar mass, not a printed value. Bounds are passed on as bounds.

The subject of experiment [1] is Entercoccus faecium 180-1. Nature of the experiment: broth micro-dilution MIC. Type of experiment: cell-based. The method, then: (§1) The MIC's were determined using a standard broth micro-dilution assay.
For orientation: Dilution methods test growth across graded concentrations, often in twofold steps.

Experiment [2] deals with Staphylococcus aureus 446. The experiment can be described thus: broth micro-dilution MIC. Type of experiment: cell-based. The method, then: as §1
The test system of experiment [3] is Staphylococcus aureus X400. The experiment can be described thus: broth micro-dilution MIC. The format is cell-based. The method, then: as §1
Experiment [4] relates to Staphylococcus aureus X778. Nature of the experiment: broth micro-dilution MIC. Type of experiment: cell-based. The method, then: as §1
Experiment [5] deals with Entercoccus faecium 276. Nature of the experiment: broth micro-dilution MIC. Type of experiment: cell-based. The method, then:
as §1

For experiment [6], the system named is Staphylococcus aureus SA1199A. Nature of the experiment: broth micro-dilution MIC. Type of experiment: cell-based. How it is done:
as §1

Experiment [7] deals with Staphylococcus aureus 489. The experiment can be described thus: broth micro-dilution MIC. Type of experiment: cell-based. The method, then: as §1
The test system of experiment [8] is Streptococcus pyogenes C203. The experiment can be described thus: broth micro-dilution MIC. Type of experiment: cell-based. How it is done: as §1
The test system of experiment [9] is Staphylococcus aureus 447. Nature of the experiment: broth micro-dilution MIC. Type of experiment: cell-based. The method, then: as §1
Experiment [10] relates to Staphylococcus aureus SA1199. The experiment can be described thus: broth micro-dilution MIC. Type of experiment: cell-based. How it is done:
as §1

Experiment [11] relates to Staphylococcus epidermidis 270. The experiment can be described thus: broth micro-dilution MIC. The format is cell-based. The method, then:
(§2) The formula I compounds have in vitro and in vivo activity against Gram-positive pathogenic bacteria. The MIC's were determined using a standard broth micro-dilution assay.

Experiment [12] has as its system Staphylococcus haemolyticus 415. Nature of the experiment: broth micro-dilution MIC. Type of experiment: cell-based. The method, then: as §2
In experiment [13] the test system is Enterococcus gallinarum 245. The experiment can be described thus: broth micro-dilution MIC. The format is cell-based. The conditions noted are these: Enterococcus gallinarum 245. The method, then: as §2
In experiment [14] the test system is Entercoccus faecium 180. Nature of the experiment: broth micro-dilution MIC. The note with it: Entercoccus faecium 180. The format is cell-based. The method, then:
as §2

In experiment [15] the test system is Entercoccus faecium 2041. Nature of the experiment: broth micro-dilution MIC. The format is cell-based. The note with it: Entercoccus faecium 2041. How it is done: as §2
Experiment [16] has as its system Staphylococcus haemolyticus 105. Nature of the experiment: broth micro-dilution MIC. The format is cell-based. The method, then: as §2
Experiment [17] deals with Streptococcus pneumoniae P1. The experiment can be described thus: broth micro-dilution MIC. The format is cell-based. How it is done:
as §2

Experiment [18] deals with Staphylococcus aureus SA1199B. Type of experiment: cell-based. The method, then: as §1
The test system of experiment [19] is Staphylococcus aureus S13E. The format is cell-based. The method, then:
as §1

Experiment [20] concerns vancomycin-resistant enterococci. The experiment can be described thus: broth micro-dilution, mean geometric MIC. Type of experiment: cell-based, Enterococcus faecium and Enterococcus faecalis. The note with it: enterococci, 24-hour incubation.
Experiment [21] has as its system vancomycin-susceptible enterococci. Nature of the experiment: broth micro-dilution, mean geometric MIC. The format is cell-based, Enterococcus faecium and Enterococcus faecalis. The note with it: enterococci, 24-hour incubation.
For experiment [22], the system named is Staphylococcus aureus 491. The experiment can be described thus: broth micro-dilution MIC. The format is cell-based. How it is done:
as §1

As to `CNC(CC(C)C)C(=O)NC1C(=O)NC(CC(N)=O)C(=O)NC2C(=O)NC3C(=O)NC(C(=O)NC(C(=O)O)c4cc(O)cc(O)c4-c4cc3ccc4O)C(OC3CC(C)(N)C(O)C(C)O3)c3ccc(c(Cl)c3)Oc3cc2cc(c3OC2OC(CO)C(O)C(O)C2OC2CC(C)(NCc3cccc(OC(C)=O)c3)C(O)C(C)O2)Oc2ccc(cc2Cl)C1O` (stereo not shown) [Compound 77], the MIC in experiment [1] is 0.125 µg/mL (≈ 0.0718 µM); in [2], at most 0.06 µg/mL; in experiment [3], at most 0.06 µg/mL; in experiment [4], at most 0.06 µg/mL; in experiment [5], 0.25 µg/mL (≈ 0.144 µM); in experiment [6] it was at most 0.06 µg/mL. For the same molecule, the MIC in experiment [7] was at most 0.06 µg/mL; in [8] it was at most 0.06 µg/mL; in [9], 1 µg/mL (≈ 0.575 µM); in experiment [10], at most 0.06 µg/mL; in experiment [11], 0.5 µg/mL (≈ 0.287 µM); in experiment [12], 8 µg/mL (≈ 4.6 µM). Further, the MIC in experiment [13] is 0.25 µg/mL (≈ 0.144 µM); in [14], 8 µg/mL (≈ 4.6 µM); in experiment [15], 0.25 µg/mL (≈ 0.144 µM); in [16], 2 µg/mL (≈ 1.15 µM); in [17], at most 0.06 µg/mL; in experiment [18] it was 0.125 µg/mL (≈ 0.0718 µM). The MIC in experiment [19] was 0.125 µg/mL (≈ 0.0718 µM).

Turning to `CNC(CC(C)C)C(=O)NC1C(=O)NC(CC(N)=O)C(=O)NC2C(=O)NC3C(=O)NC(C(=O)NC(C(=O)O)c4cc(O)cc(O)c4-c4cc3ccc4O)C(OC3CC(C)(N)C(O)C(C)O3)c3ccc(c(Cl)c3)Oc3cc2cc(c3OC2OC(CO)C(O)C(O)C2OC2CC(C)(NCc3ccc(O)cc3)C(O)C(C)O2)Oc2ccc(cc2Cl)C1O` (stereo not shown) [Compound 136], the “mean geometric MIC, Vancomycin Resistant Strains” value in experiment [20] amounted to 23 µg/mL. Besides, the MIC in experiment [1], in experiment [2], in [3], in experiment [4], in [5] and in experiment [6] was at most 0.06 µg/mL throughout. In addition, the MIC in experiment [7] was at most 0.06 µg/mL; in experiment [8], at most 0.06 µg/mL; in [9], 2 µg/mL (≈ 1.18 µM); in experiment [10], at most 0.06 µg/mL; in [11] it was 1 µg/mL (≈ 0.589 µM); in experiment [12], 4 µg/mL (≈ 2.35 µM). Also, the MIC was 4 µg/mL (≈ 2.35 µM) in experiment [13]; 2 µg/mL (≈ 1.18 µM) in experiment [14]; at most 0.06 µg/mL in experiment [15]; 2 µg/mL (≈ 1.18 µM) in [16]; at most 0.06 µg/mL in experiment [17]; at most 0.06 µg/mL in experiment [18]. In [19], the MIC was at most 0.06 µg/mL. For the same molecule, the “mean geometric MIC, Vancomycin Sensitive Strains” value in experiment [21] is 0.76 µg/mL.

For the molecule `CNC(CC(C)C)C(=O)NC1C(=O)NC(CC(N)=O)C(=O)NC2C(=O)NC3C(=O)NC(C(=O)NC(C(=O)O)c4cc(O)cc(O)c4-c4cc3ccc4O)C(OC3CC(C)(N)C(O)C(C)O3)c3ccc(c(Cl)c3)Oc3cc2cc(c3OC2OC(CO)C(O)C(O)C2OC2CC(C)(NCC34CC5CC(CC(C5)C3)C4)C(O)C(C)O2)Oc2ccc(cc2Cl)C1O` (stereo not shown) [Compound 141], the “mean geometric MIC, Vancomycin Resistant Strains” value in experiment [20] is 8.0 µg/mL. The MIC in experiment [1] is at most 0.06 µg/mL; in experiment [2], 2 µg/mL (≈ 1.15 µM); in [22] it was 0.5 µg/mL (≈ 0.287 µM); in [4], 0.5 µg/mL (≈ 0.287 µM); in [5] it was 0.5 µg/mL (≈ 0.287 µM); in experiment [6] it was at most 0.06 µg/mL. In addition, the MIC is at most 0.06 µg/mL in experiment [8]; 1 µg/mL (≈ 0.574 µM) in experiment [9]; 1 µg/mL (≈ 0.574 µM) in experiment [11]; 4 µg/mL (≈ 2.3 µM) in experiment [12]; 4 µg/mL (≈ 2.3 µM) in experiment [13]; 0.5 µg/mL (≈ 0.287 µM) in [14]. The MIC in experiment [15] is at most 0.06 µg/mL; in [16], 1 µg/mL (≈ 0.574 µM); in [17] it was at most 0.06 µg/mL; in experiment [18], 2 µg/mL (≈ 1.15 µM).

For `CNC(CC(C)C)C(=O)NC1C(=O)NC(CC(N)=O)C(=O)NC2C(=O)NC3C(=O)NC(C(=O)NC(C(=O)O)c4cc(O)cc(O)c4-c4cc3ccc4O)C(OC3CC(C)(N)C(O)C(C)O3)c3ccc(cc3)Oc3cc2cc(c3OC2OC(CO)C(O)C(O)C2OC2CC(C)(NCc3ccc(-c4ccccc4)cc3)C(O)C(C)O2)Oc2ccc(cc2)C1O` (stereo not shown) [Compound 183], the “mean geometric MIC, Vancomycin Resistant Strains” value in experiment [20] turned out to be 23 µg/mL. Also, the MIC in [1], in experiment [2], in experiment [3], in experiment [4], in experiment [6] and in experiment [7] was at most 0.06 µg/mL each time. The MIC in [8] is at most 0.06 µg/mL; in [9] it was at most 0.06 µg/mL; in experiment [10], at most 0.06 µg/mL; in experiment [11] it was at most 0.06 µg/mL; in experiment [12], at most 0.06 µg/mL; in experiment [13], 0.5 µg/mL (≈ 0.296 µM). In addition, the MIC was 2 µg/mL (≈ 1.18 µM) in experiment [14]; at most 0.06 µg/mL in [15]; at most 0.06 µg/mL in experiment [16]; at most 0.06 µg/mL in experiment [17]; at most 0.06 µg/mL in [18]; at most 0.06 µg/mL in [19]. For the same molecule, the “mean geometric MIC, Vancomycin Sensitive Strains” value in experiment [21] is 0.130 µg/mL.

As for `CNC(CC(C)C)C(=O)NC1C(=O)NC(CC(N)=O)C(=O)NC2C(=O)NC3C(=O)NC(C(=O)NC(C(=O)O)c4cc(O)cc(O)c4-c4cc3ccc4O)C(OC3CC(C)(N)C(O)C(C)O3)c3ccc(c(Cl)c3)Oc3cc2cc(c3OC2OC(CO)C(O)C(O)C2OC2CC(C)(NCc3ccc(NC(=O)c4ccc(F)cc4)cc3)C(O)C(C)O2)Oc2ccc(cc2Cl)C1O` (stereo not shown) [Compound 193], the “mean geometric MIC, Vancomycin Resistant Strains” value in experiment [20] came to 2 µg/mL. The MIC was at most 0.06 µg/mL in experiment [1]; 0.5 µg/mL (≈ 0.275 µM) in [2]; at most 0.06 µg/mL in experiment [22]; at most 0.06 µg/mL in experiment [4]; at most 0.06 µg/mL in experiment [5]; at most 0.06 µg/mL in experiment [6]. Further, the MIC was at most 0.06 µg/mL in [8]; at most 0.06 µg/mL in [9]; 1 µg/mL (≈ 0.55 µM) in [12]; 1 µg/mL (≈ 0.55 µM) in experiment [13]; at most 0.06 µg/mL in experiment [14]; at most 0.06 µg/mL in [15]. The values for the MIC in experiment [16], in experiment [17] and in [19] were 0.5 µg/mL (≈ 0.275 µM), at most 0.06 µg/mL and at most 0.06 µg/mL, respectively. In [21], the “mean geometric MIC, Vancomycin Sensitive Strains” value stood at 0.072 µg/mL.

With `CNC(CC(C)C)C(=O)NC1C(=O)NC(CC(N)=O)C(=O)NC2C(=O)NC3C(=O)NC(C(=O)NC(C(=O)O)c4cc(O)cc(O)c4-c4cc3ccc4O)C(OC3CC(C)(N)C(O)C(C)O3)c3ccc(c(Cl)c3)Oc3cc2cc(c3OC2OC(CO)C(O)C(O)C2OC2CC(C)(NCc3sccc3-c3cccs3)C(O)C(C)O2)Oc2ccc(cc2Cl)C1O` (stereo not shown) [Compound 238], the “mean geometric MIC, Vancomycin Resistant Strains” value in experiment [20] was found to be 1.4 µg/mL. In addition, the MIC in experiment [1] is at most 0.06 µg/mL; in experiment [2], 1 µg/mL (≈ 0.565 µM); in [3], 1 µg/mL (≈ 0.565 µM); in [4], 0.5 µg/mL (≈ 0.282 µM); in experiment [5], at most 0.06 µg/mL; in [6], at most 0.06 µg/mL. The MIC was 0.5 µg/mL (≈ 0.282 µM) in experiment [7]; at most 0.06 µg/mL in [8]; 0.5 µg/mL (≈ 0.282 µM) in experiment [9]; 0.5 µg/mL (≈ 0.282 µM) in experiment [10]; 0.5 µg/mL (≈ 0.282 µM) in [11]; 2 µg/mL (≈ 1.13 µM) in experiment [12]. For the same molecule, the MIC in experiment [13] is at most 0.06 µg/mL; in experiment [14] it was 0.125 µg/mL (≈ 0.0706 µM); in experiment [15], at most 0.06 µg/mL; in experiment [16], 0.5 µg/mL (≈ 0.282 µM); in [17] it was at most 0.06 µg/mL; in experiment [18] it was 0.5 µg/mL (≈ 0.282 µM). Further, the minimal inhibitory concentration (MIC) in experiment [19] was 0.125 µg/mL (≈ 0.0706 µM). The “mean geometric MIC, Vancomycin Sensitive Strains” value in experiment [21] stood at 0.14 µg/mL.

For orientation: MIC means the lowest concentration that inhibits growth of the organism.

These data come from US5840684A, “Glycopeptide antibiotic derivatives” (Eli Lilly and Company, priority 1995, dated 1998).
